Laboratory results as given in patent US20030077689A1, “Microbial growth variations” (priority 1999, published 2003).

Test system: Staphylococcus aureus
Experiment: Replicate-well microdilution growth test (32 replicates per antibiotic concentration), growth ranked by viability in culture and direct epifluorescence
Format: cell-based
Details: for growth response of replicate wells: 5 hours at 37° C.
From the text: Format: In general terms the entire series of tests followed the methods for use of microdilution plates. Each of the eight antibiotic concentrations was represented by 32 replicate wells, thus amounting to 8×32[256] test wells in a three plate array.
Organisms: Two cultures of Staphylococcus aureus, with one isolated from plates containing penicillin supplemented agar to provide cells of known β lactamase activity.
Inoculum: A target level of 10^2 cells/wells was selected to test an adequate number of organisms within each treatment. In the examples 2-4 the aim was to include an increasing proportion of resistant/β lactamase positive cells. Preparation by dilutions at these levels will undoubtedly be prone to errors.
Incubation: Sealed plates incubated for 5 hours at 37° C. [previously shown to provide significant growth]. At the end of incubation well contents […] were transferred to 200 μl using individual sterile pipette tips [i.e. one/well].
A 100 μl sample of diluted well contents was plated and spread on culture plates. The growth, corresponding to the situation at 5 hours, was assessed after incubation of the culture plates overnight.
ii. Direct Epifluorescence Method
A second 100 μl sample was filtered through a commercially available 0.2μ nuclepore membrane. This non-fluorescent, black filter was supported on a 5.0μcellulosic membrane filter. Discrete 3.0 mm diameter filter zones were created by attaching pre-punched black adhesive tape to the membranes. After filtration the zones were stained with 0.01% w/v Acriflavine™ in phosphate buffer at pH 7.2 [filtered immediately before use]. Direct observation, using an epifluorescence microscope resembles the DEFT method described by Pettifer G L Rodrigues U K [1982] J.Appl.Bact. 53:323-329. Using a large numerical aperture×45 objective it is relatively simple to rank the estimated density of growth.
The viability test depicts growth responses in terms of organisms recovered and subsequently able to produce colonies on a secondary culture plate. Direct epifluorescence/filtration does constitute rapid detection but in this manual form is both cumbersome and labour intensive. Within these constraints both methods served to assign rankings to the growth response of every well. The two methods were adequate to indicate the presence of growth.

Penicillin
growth response of replicate wells (Example 1 (no resistant cells added), antibiotic levels higher than 0.015 μg/ml): no evidence of growth | growth response of replicate wells (Examples 1-4, antibiotic concentration 0.004 μg/ml, 32 replicate wells): all 32 replicate wells exhibit continued growth | growth response of replicate wells (Examples 1-4, antibiotic concentration 0.015 μg/ml): the population in some wells exhibits sensitivity | growth response of replicate wells (Examples 2, 3 and 4 (inoculum with increasing proportion of resistant/β lactamase positive cells)): an appreciable number of wells show low grade growth | sensitivity of resistant sub-populations in some wells (Examples 2, 3 and 4, antibiotic concentration 0.250 μg/ml): insensitive
